{"source": "patent US20240391889A1", "about": "“ANTIMICROBIAL COMPOUNDS AND THE METHODS OF USE” (priority 2021, published 2024)", "key": {"[1]": {"tested_on": "single donor human red blood cells (hRBC)"}, "C. albicans biofilm": {"tested_on": "C. albicans biofilm", "test": "Fungal biofilm minimum inhibitory concentration assay (PrestoBlue)", "type": "cell-based, Candida albicans", "experimental": "The biofilm minimum inhibitory concentration (MIC) of peptoids against fungal pathogens C. albicans was determined following CLSI guidelines (CLSI. Reference method for broth dilution antifungal susceptibility testing of yeasts; approved standard-third edition; CLSI document M27 A3. Clinical and Laboratory Standards Institute, 2008). Colonies were transferred from a streaked YPD plate to 0.85% saline to reach an OD530 between 0.15 and 0.25. This inoculant was diluted 1:100 into RPMI-MOPS and then further diluted 1:20 into RPMI-MOPS. 200 μL of inoculant was seeded into each well of a 96 well black-walled plate. Plates were incubated overnight at 37° C. Media was gently removed and gently washed three times with PBS. RPMI-MOPS (198 μL) were added to each well. 2-fold serial dilutions of 100× peptoid solutions were prepared in water and 2 μL of peptoid were added to each well in triplicate then incubated at 37° C. for 24 hours. PRESTOBLUE (20 μL) was added to each well and incubated at 37° C. for one hour before measuring fluorescence on a SPECTRAMAX M5 plate reader (Ex. 555 nm; Em. 585 nm)."}, "Mycobacterium smegmatis": {"tested_on": "Mycobacterium smegmatis", "test": "MIC assay, M. smegmatis (72 h)", "type": "cell-based", "experimental": "The minimum inhibitory concentration (MIC) of peptoids against the ESKAPE bacteria (Enterococcus faecium ATCC 6569; Staphylococcus aureus ATCC 29213; Klebsiella pneumoniae ATCC 13883; Acinetobacter baumanii ATCC 19606; Pseudomonas aeruginosa ATCC 25619; Enterococcus faecalis ATCC 29212; and Escherichia coli ATCC 25922) was determined following CLSI guidelines (CLSI. Methods for Dilution Antimicrobial Susceptibility Tests for Bacteria That Grow Aerobically, 11th Edition. Clinical and Laboratory Standards Institute, 2018). The MIC against Mycobacterium smegmatis was also determined following CLSI guidelines (Woods, G. L. et al. Susceptibility Testing of Mycobacteria, Nocardiae, and Other Aerobic Actinomycetes, 2nd edition. (2011)). Colonies picked from streaked tryptic soy agar plates were added to tryptic soy broth (TSB) to achieve a turbidity of OD600=0.08-0.15. Inoculant was diluted 1:200 into cation adjust Mueller Hinton Broth (CAMHB) and 90 μL was plated into each well of a 96 well black-wall plate. […] Following incubation for the ESKAPE bacteria, PRESTO BLUE (10 μL) was added to each well and incubated at 37° C. for one hour before measuring fluorescence on a SPECTRAMAX M5 plate reader (Ex. 555 nm; Em. 585 nm). Following incubation for M. smegmatis, wells were scored following CLSI guidelines to determine MIC. […]"}, "[2]": {"tested_on": "Acinetobacter baumanii ATCC 19606", "type": "cell-based, Acinetobacter baumannii", "conditions": "ATCC 19606, 24 h", "text": "This screening led to the discovery of RMG9-11 (FIG. 2C). The minimum inhibitory concentration (MIC) of resynthesized RMG9-11 was initially determined against C. albicans, C. neoformans, and the ESKAPE bacteria via CSLI guidelines (CLSI. Methods for Dilution Antimicrobial Susceptibility Tests for Bacteria That Grow Aerobically, 11th Edition. Clinical and Laboratory Standards Institute (2018); CLSI. Reference method for broth dilution antifungal susceptibility testing of yeasts; approved standard-third edition; CLSI document M27-A3. Clinical and Laboratory Standards Institute (2008)). […]\nThe minimum inhibitory concentration (MIC) of peptoids against the ESKAPE bacteria (Enterococcus faecium ATCC 6569; Staphylococcus aureus ATCC 29213; Klebsiella pneumoniae ATCC 13883; Acinetobacter baumanii ATCC 19606; Pseudomonas aeruginosa ATCC 25619; Enterococcus faecalis ATCC 29212; and Escherichia coli ATCC 25922) was determined following CLSI guidelines (CLSI. Methods for Dilution Antimicrobial Susceptibility Tests for Bacteria That Grow Aerobically, 11th Edition. Clinical and Laboratory Standards Institute, 2018). The MIC against Mycobacterium smegmatis was also determined following CLSI guidelines (Woods, G. L. et al. Susceptibility Testing of Mycobacteria, Nocardiae, and Other Aerobic Actinomycetes, 2nd edition. (2011)). […]"}}, "note": "Numbered stars: 1 amine (or outer) side, 2 acyl side, 3 side chain; on linkers, the order of the positions; unused ones are H or OH. Square brackets hold non-standard residues; d marks the D form. Peptide text beside a SMILES is read from it. N(tridecyl)Gly = CCCCCCCCCCCCCNCC(=O)O; X1 = CC(c1ccccc1)N(CC(=O)[*:2])[*:1]; NFurfurylGly = O=C(O)CNCc1ccco1; Gly(N(CH2)3NH2) = NCCCNCC(=O)O; Nphe = O=C(O)CNCc1ccccc1; NPrGly = CCCNCC(=O)O; Nlys = NCCCCNCC(=O)O", "data": [{"smiles": "CCCCCCCCCCCCCNCC(=O)N(CCC)CC(=O)N(CC(=O)N(CCCCN)CC(=O)N(CC(=O)N(CC(=O)N(CCCN)CC(N)=O)Cc1ccccc1)Cc1ccco1)C(C)c1ccccc1", "note": "(centres unmarked) [RMG9-11] (H-[N(tridecyl)Gly][NPrGly][X1][Nlys][NFurfurylGly][Nphe][Gly(N(CH2)3NH2)]-NH2)", "values": [{"measurement": "HC10 hRBC", "setting": "[1]", "result": 29, "unit": "µg/mL"}, {"measurement": "increase of biofilm MIC compared to MIC", "setting": "C. albicans biofilm; BMIC vs planktonic C. albicans MIC", "result": 16, "unit": "fold"}, {"measurement": "MIC C. albicans biofilm (BMIC)", "setting": "C. albicans biofilm; established biofilm, 24 h", "result": 100, "unit": "µg/mL"}, {"measurement": "MIC M. smegmatis", "setting": "Mycobacterium smegmatis", "result": 6.25, "unit": "µg/mL"}, {"measurement": "MIC A. baumannii", "setting": "[2]", "result": 12.5, "unit": "µg/mL"}]}]}
